Laboratory results: ChEMBL document CHEMBL4177603 (Bioorg Med Chem Lett, 2017)

Experiments:
Rattus norvegicus [1] = organism: Rattus norvegicus; experiment: Displacement of [3H]GABA from rat brain GABA transporter at 10 uM after 30 mins by scintillation counting method
[2] = molecular target: Angiotensin-converting enzyme (Homo sapiens) (UniProt P12821); experiment: Inhibition of ACE (unknown origin) at 10 uM by radioligand binding assay relative to control
[3] = molecular target: High affinity choline transporter 1 (Homo sapiens) (UniProt Q9GZV3); experiment: Displacement of [3H]hemicholinium-3 from recombinant human choline transporter at 10 uM after 60 mins by scintillation counting method
[4] = Solubility of the compound in aqueous buffer at pH 4.2; format: physicochemical
[5] = molecular target: Sodium channel protein type 9 subunit alpha (Rattus norvegicus, UniProt O08562); experiment: Inhibition of rat Nav1.7 expressed in HEK cells by patch clamp electrophysiology method; format: cell-based
Cytochrome P450 2C9 = Cytochrome P450 2C9 (Homo sapiens, UniProt P11712); experiment: Inhibition of CYP2C9 (unknown origin); format: ADME
[6] = Intrinsic clearance in mouse hepatocytes assessed per million cells; format: ADME, cell-based, Hepatocyte; conditions: read-out: CLH
[7] = Intrinsic clearance in rat liver microsomes; format: ADME, microsome; conditions: read-out: CLH
[8] = Intrinsic clearance in human liver microsomes; format: ADME, microsome; conditions: read-out: CLH
[9] = molecular target: Adenosine receptor A1 (Homo sapiens) (UniProt P30542); experiment: Agonist activity at recombinant human adenosine A1 receptor expressed in mouse BA/F3 cells assessed as increase in calcium flux at 10 uM by spectrophotometric method relative to control; format: functional, cell-based
[10] = molecular target: Alpha-2A adrenergic receptor (Homo sapiens) (UniProt P08913); experiment: Agonist activity at recombinant human alpha2a receptor at 10 uM relative to control; format: functional
[11] = molecular target: Alpha-2B adrenergic receptor (Homo sapiens) (UniProt P18089); experiment: Agonist activity at recombinant human alpha2b receptor expressed in HEK293 cells assessed as increase in cAMP accumulation at 10 uM measured after 30 mins by HTRF assay relative to control; format: functional, cell-based
[12] = molecular target: Type-1 angiotensin II receptor (Homo sapiens) (UniProt P30556); experiment: Agonist activity at recombinant human AT1 receptor expressed in HEK293 cells assessed as increase in calcium flux at 10 uM by spectrophotometric method relative to control; format: functional, cell-based
[13] = molecular target: D(1A) dopamine receptor (Homo sapiens) (UniProt P21728); experiment: Agonist activity at recombinant human D1 receptor expressed in CHOK1 cells assessed as increase in cAMP accumulation at 10 uM after 30 mins by HTRF assay relative to control; format: functional, cell-based
[14] = molecular target: Histamine H3 receptor (Homo sapiens) (UniProt Q9Y5N1); experiment: Agonist activity at recombinant human H3 receptor expressed in CHOK1 cells assessed as increase in cAMP accumulation at 10 uM measured after 10 mins by HTRF assay relative to control; format: functional, cell-based
[15] = molecular target: 5-hydroxytryptamine receptor 2B (Homo sapiens) (UniProt P41595); experiment: Agonist activity at human 5-HT2B receptor expressed in CHOK1 cells assessed as increase in IP1 accumulation at 10 uM measured after 30 mins by HTRF method relative to control; format: functional, cell-based
[16] = molecular target: T1, Alpha-1A adrenergic receptor (Homo sapiens) (UniProt P35348); experiment: Antagonist activity at recombinant human alpha1a receptor expressed in CHOK1 cells assessed as inhibition of epinephrine-induced calcium flux at 10 uM by fluorescence assay relative to control; format: functional, cell-based
T1 sequence (whole entry): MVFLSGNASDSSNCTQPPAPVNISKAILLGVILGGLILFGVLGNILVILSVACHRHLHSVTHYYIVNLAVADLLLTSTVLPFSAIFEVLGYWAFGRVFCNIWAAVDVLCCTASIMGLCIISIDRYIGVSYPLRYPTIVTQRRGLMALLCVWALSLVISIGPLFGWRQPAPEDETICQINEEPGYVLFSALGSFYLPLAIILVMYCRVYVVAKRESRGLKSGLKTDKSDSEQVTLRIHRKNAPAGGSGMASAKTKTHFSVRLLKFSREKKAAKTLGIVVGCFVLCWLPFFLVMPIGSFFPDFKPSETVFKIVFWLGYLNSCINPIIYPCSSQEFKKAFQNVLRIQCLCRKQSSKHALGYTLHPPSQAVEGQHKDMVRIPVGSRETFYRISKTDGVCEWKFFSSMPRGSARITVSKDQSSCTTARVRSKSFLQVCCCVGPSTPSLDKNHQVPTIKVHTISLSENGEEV

[17] = molecular target: D(2) dopamine receptor (Homo sapiens) (UniProt P14416); experiment: Antagonist activity at recombinant human D2S receptor expressed in HEK293 cells assessed as inhibition of dopamine-induced cell impedance at 10 uM by cellular dielectric spectroscopic method relative to control; format: cell-based
Rattus norvegicus [18] = organism: Rattus norvegicus; experiment: Displacement of [3H]AMPA from rat brain AMPA receptor at 10 uM after 60 mins by scintillation counting method
[19] = molecular target: 5-hydroxytryptamine receptor 3A (Homo sapiens) (UniProt P46098); experiment: Displacement of [3H]BRL 43694 from recombinant human 5-HT3 receptor at 10 uM measured after 120 mins by scintillation counting method
[20] = molecular target: Prostaglandin G/H synthase 2 (Homo sapiens) (UniProt P35354); experiment: Inhibition of recombinant human COX2 at 10 uM using arachidonic acid as substrate measured after 5 mins by fluorescence assay
[21] = molecular target: Epidermal growth factor receptor (Homo sapiens) (UniProt P00533); experiment: Displacement of [125I] EGF from EGFR in human A431 cells at 10 uM after 60 mins by scintillation counting method; format: cell-based
[22] = molecular target: Tyrosine-protein kinase Lck (Homo sapiens) (UniProt P06239); experiment: Inhibition of recombinant human LCK at 10 uM using Ulight-Poly GAT[EAY(1:1:1)]n as substrate after 10 mins by LANCE assay
[23] = molecular target: Beta-2 adrenergic receptor (Homo sapiens) (UniProt P07550); experiment: Displacement of [3H](-)CGP12177 from recombinant human beta2 receptor at 10 uM after 120 mins by scintillation counting method
[24] = molecular target: T2, Muscarinic acetylcholine receptor M1 (Homo sapiens) (UniProt P11229); experiment: Displacement of [3H]pirenzepine from recombinant human M1 receptor at 10 uM after 60 mins by scintillation counting method
T2 sequence (whole entry): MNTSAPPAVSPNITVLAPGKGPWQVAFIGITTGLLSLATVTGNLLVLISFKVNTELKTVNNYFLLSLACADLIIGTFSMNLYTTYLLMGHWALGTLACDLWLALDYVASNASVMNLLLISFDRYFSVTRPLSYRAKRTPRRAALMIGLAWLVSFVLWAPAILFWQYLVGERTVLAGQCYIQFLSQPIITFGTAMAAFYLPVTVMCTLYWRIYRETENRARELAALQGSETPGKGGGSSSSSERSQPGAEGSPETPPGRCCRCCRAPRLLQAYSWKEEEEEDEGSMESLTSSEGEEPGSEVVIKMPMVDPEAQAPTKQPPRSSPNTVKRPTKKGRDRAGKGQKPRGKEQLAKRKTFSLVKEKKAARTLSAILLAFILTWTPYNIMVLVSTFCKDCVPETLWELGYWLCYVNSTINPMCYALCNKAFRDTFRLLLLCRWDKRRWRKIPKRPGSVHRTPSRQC

Adenosine receptor A1 = Adenosine receptor A1 (Homo sapiens, UniProt P30542); experiment: Agonist activity at recombinant human adenosine A1 receptor expressed in mouse BA/F3 cells assessed as increase in calcium flux by spectrophotometric method; format: functional, cell-based
Adenosine receptor A1, sequence (P30542 whole entry): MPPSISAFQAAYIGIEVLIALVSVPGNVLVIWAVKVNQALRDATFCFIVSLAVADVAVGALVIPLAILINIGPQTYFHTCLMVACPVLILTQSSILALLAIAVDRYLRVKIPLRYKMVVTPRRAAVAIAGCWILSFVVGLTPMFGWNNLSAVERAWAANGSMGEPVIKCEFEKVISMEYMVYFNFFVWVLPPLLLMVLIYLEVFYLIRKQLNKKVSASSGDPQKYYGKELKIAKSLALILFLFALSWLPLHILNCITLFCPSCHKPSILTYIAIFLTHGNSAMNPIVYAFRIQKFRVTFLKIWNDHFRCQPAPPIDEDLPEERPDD

High affinity choline transporter 1 (Homo sapiens), sequence (Q9GZV3 whole entry): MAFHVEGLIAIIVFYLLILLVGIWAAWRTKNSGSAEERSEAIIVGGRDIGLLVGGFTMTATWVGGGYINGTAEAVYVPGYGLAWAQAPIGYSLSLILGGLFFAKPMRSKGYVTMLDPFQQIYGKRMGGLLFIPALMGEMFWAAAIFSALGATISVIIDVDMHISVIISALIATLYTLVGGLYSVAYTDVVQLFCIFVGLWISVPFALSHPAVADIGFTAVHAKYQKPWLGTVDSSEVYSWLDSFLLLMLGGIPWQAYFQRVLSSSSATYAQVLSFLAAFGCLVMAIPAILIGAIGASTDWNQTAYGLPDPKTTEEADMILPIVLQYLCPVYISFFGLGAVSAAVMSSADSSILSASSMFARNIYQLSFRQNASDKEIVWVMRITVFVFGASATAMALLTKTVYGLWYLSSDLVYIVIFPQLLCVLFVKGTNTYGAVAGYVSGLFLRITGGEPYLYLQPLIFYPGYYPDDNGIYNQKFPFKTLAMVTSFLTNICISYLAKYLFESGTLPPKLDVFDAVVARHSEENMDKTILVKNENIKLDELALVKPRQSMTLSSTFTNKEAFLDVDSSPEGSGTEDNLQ
Alpha-2A adrenergic receptor (Homo sapiens), sequence (P08913 whole entry): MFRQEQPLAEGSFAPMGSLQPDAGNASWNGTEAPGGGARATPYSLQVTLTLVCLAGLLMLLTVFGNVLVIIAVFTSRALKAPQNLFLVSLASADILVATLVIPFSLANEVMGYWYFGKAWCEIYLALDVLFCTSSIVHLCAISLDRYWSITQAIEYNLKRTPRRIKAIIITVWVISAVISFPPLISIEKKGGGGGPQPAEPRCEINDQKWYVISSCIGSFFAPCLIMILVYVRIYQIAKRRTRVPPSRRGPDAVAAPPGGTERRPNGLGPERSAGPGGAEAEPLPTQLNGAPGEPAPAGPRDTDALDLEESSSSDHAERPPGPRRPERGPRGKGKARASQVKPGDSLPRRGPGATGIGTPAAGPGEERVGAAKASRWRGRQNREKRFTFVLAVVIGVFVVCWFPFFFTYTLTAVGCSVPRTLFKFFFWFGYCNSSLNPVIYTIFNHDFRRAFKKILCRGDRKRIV
Alpha-2B adrenergic receptor (Homo sapiens), sequence (P18089 whole entry): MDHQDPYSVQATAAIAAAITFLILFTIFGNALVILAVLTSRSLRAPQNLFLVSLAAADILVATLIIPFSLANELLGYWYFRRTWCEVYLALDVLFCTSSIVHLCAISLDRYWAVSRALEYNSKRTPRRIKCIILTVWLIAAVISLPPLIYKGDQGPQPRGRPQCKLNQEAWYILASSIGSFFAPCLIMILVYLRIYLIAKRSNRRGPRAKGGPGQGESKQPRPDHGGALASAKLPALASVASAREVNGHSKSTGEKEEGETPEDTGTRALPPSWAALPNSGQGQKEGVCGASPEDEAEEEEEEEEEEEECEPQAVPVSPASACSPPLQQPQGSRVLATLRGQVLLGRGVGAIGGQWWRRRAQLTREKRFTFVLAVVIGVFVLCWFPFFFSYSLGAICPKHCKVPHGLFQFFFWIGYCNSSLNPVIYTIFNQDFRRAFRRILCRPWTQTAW
Angiotensin-converting enzyme (Homo sapiens), sequence (P12821 whole entry): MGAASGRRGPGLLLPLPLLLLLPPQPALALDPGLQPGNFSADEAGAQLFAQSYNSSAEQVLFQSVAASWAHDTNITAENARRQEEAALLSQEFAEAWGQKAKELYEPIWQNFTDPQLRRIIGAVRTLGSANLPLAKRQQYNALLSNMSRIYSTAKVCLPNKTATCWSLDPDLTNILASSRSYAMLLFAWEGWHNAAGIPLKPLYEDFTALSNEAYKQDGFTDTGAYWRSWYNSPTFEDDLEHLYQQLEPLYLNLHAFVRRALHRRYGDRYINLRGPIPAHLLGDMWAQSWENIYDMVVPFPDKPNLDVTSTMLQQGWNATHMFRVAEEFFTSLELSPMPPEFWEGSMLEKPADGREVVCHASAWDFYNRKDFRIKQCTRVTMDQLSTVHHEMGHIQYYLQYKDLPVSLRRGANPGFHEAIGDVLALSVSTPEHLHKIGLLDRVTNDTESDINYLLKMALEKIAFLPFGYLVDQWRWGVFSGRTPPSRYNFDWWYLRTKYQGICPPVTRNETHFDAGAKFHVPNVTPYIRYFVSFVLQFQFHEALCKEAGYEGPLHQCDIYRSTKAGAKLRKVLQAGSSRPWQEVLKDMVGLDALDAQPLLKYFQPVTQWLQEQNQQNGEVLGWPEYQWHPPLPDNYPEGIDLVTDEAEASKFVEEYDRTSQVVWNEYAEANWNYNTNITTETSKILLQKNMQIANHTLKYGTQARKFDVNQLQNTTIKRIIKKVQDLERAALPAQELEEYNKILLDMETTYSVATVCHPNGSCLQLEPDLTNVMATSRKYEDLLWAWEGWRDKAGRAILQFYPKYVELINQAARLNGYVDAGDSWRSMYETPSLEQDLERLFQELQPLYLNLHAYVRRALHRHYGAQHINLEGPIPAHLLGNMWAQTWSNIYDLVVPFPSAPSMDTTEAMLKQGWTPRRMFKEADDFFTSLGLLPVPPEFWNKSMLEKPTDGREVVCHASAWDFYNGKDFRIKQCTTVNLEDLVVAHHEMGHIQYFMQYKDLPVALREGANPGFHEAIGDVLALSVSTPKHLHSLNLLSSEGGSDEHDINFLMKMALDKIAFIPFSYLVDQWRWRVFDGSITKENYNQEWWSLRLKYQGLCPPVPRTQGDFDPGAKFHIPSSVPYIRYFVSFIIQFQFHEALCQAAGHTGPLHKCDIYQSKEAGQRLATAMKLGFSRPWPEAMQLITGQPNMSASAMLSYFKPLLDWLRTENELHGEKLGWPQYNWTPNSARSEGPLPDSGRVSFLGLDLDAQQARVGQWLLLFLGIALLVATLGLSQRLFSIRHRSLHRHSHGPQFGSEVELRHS
Tyrosine-protein kinase Lck (Homo sapiens), sequence (P06239 2-509 limits assumed): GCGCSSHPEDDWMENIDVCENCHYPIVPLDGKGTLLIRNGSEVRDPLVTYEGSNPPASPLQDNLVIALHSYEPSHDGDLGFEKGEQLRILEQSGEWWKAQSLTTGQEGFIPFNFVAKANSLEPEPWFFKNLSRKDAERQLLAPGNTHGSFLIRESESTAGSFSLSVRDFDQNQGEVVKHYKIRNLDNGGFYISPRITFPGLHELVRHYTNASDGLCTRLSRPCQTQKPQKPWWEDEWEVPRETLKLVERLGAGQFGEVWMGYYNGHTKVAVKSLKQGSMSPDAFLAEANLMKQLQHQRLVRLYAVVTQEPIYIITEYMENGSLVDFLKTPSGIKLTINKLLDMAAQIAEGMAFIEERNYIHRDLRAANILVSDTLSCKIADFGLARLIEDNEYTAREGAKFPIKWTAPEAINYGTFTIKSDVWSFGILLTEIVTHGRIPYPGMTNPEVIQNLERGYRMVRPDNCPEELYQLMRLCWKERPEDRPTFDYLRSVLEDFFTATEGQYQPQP
Histamine H3 receptor (Homo sapiens), sequence (Q9Y5N1 whole entry): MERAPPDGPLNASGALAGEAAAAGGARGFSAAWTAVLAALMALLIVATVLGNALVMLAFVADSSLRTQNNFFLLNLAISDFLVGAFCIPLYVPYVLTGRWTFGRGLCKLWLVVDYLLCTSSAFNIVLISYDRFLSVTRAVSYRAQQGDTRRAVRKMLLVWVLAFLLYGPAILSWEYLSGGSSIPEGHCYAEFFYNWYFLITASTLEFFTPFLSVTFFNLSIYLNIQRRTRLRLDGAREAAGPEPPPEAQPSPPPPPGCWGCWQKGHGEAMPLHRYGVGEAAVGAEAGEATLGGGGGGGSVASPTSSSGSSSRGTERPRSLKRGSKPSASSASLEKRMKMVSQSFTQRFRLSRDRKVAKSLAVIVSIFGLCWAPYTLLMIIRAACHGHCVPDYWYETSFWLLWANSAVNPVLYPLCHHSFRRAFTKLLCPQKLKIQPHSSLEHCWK
D(1A) dopamine receptor (Homo sapiens), sequence (P21728 whole entry): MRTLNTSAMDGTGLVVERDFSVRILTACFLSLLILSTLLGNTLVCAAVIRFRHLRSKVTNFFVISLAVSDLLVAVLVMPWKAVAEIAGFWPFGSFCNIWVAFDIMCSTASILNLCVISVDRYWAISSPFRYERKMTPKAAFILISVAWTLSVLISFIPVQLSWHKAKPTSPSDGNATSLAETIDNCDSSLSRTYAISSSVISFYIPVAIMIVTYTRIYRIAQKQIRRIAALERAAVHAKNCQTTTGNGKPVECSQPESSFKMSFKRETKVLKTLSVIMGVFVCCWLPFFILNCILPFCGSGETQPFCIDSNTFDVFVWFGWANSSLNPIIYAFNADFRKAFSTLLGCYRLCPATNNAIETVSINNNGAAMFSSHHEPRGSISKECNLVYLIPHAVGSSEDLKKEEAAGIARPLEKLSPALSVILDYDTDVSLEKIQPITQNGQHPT
5-hydroxytryptamine receptor 3A (Homo sapiens), sequence (P46098 whole entry): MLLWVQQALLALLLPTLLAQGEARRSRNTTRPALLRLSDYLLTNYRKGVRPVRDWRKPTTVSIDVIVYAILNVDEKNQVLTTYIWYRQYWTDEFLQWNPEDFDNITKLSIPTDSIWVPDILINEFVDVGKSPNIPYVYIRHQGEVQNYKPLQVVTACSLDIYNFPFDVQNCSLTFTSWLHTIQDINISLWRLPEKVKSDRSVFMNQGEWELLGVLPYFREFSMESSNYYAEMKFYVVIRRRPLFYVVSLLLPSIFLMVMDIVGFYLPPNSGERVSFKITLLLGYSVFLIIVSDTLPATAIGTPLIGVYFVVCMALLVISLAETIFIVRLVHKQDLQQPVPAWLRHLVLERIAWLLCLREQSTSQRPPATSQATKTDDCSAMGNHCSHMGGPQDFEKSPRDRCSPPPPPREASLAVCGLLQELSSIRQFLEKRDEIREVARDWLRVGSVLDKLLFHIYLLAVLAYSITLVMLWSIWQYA

With `N#Cc1cc(S(=O)(=O)Nc2ncns2)ccc1Oc1ccc(-c2cccc(C(F)(F)F)c2)cc1-c1ccnc(CNCCC2CCNCC2)c1` the inhibition (Rattus norvegicus [1]) was 5%, the inhibition [2] was -8% and the inhibition [3] was 99%. For the same compound, the solubility [4] was greater than 1170 µg/mL, the IC50 [5] was 75 nM and the IC50 (Cytochrome P450 2C9) was 3.75 µM. For the same compound, the hepatocyte CLint [6] was less than 3 µL/min/1e6 cells, the microsomal CLint [7] was less than 14.1 µL/min/mg and the microsomal CLint [8] was less than 8 µL/min/mg. It also gave an Activity [9] of 107%, an Activity [10] of -7% and an Activity [11] of -2%. The Activity [12] was -3%, the Activity [13] was 6% and the Activity [14] was 7%. The Activity [15] was 1%, the inhibition [16] was 23% and the inhibition [17] was 31%. The inhibition (Rattus norvegicus [18]) was -1%, the inhibition [19] was 27% and the inhibition [20] was 85%. It also gave an inhibition [21] of 35%, an inhibition [22] of 43% and an inhibition [23] of 4%. It also gave an inhibition [24] of 48% and an EC50 (Adenosine receptor A1) of 1430 nM.
